In patent US20080104722A1, “DISEASE MODEL ANIMALS OF METABOLIC SYNDROME AND A METHOD OF SCREENING PREVENTIVE AND THERAPEUTIC AGENTS FOR METABOLIC SYNDROME USING THE SAME” (REDOX BIOSCIENCE INC., priority 2006, published 2008):

Tests used:
Wild type mice = test: Glucose or oleic acid supplementation in drinking water while deprived of other food, wild type mice; format: in vivo, mouse; conditions: 20% glucose or 10% oleic acid in drinking water, deprived of other food (data not shown)
Text: (§1) Glucose and fatty acids are known to be the major energy sources from foods. The anomaly observed in TBP-2^−/− mice strongly indicates the occurrence of nutritional dysmetabolism. To examine this hypothesis, these mice were housed with free access to 20% glucose or 10% oleic acid in drinking water, while deprived of other food.

TBP-2^−/− mice = test: Glucose or oleic acid supplementation in drinking water while deprived of other food, TBP-2 knockout mice; format: in vivo
Procedure: Blood was collected from the tail veins. Triglyceride concentrations were measured using a Wako Triglyceride Test kit according to the manufacturer's instructions (Wako Pure Chemical Industries, Ltd.). Serum insulin levels were quantified using a Mouse Insulin ELISA kit (Shibayagi Co. Ltd.). The other blood assays were performed by Falco Biosystems Ltd. The liver was removed under anesthesia at appropriate time points, and paraffin sections were prepared. Standard hematoxylin-eosin and Oil Red O staining was performed.
as §1

## CCCCCCCC/C=C\CCCCCCCC(=O)O [oleic acid]
Wild type mice
  survival of wild type mice: able to survive
TBP-2^−/− mice; 10% oleic acid in drinking water, deprived of other food (FIG. 9A)
  rescue (survival) of TBP-2^−/− mice: not rescued
TBP-2^−/− mice; oleic acid supplementation (data not shown)
  symptoms compared with fasted TBP-2^−/− mice: identical symptoms
